Test results from patent US9650402B2, “Heterodinuclear platinum-ruthenium complexes, preparation thereof and therapeutic use thereof” (City University of Hong Kong, priority 2015, dated 2017).

Tests used:
A2780cisR cells = assay: MTT cytotoxicity assay, cDDP-resistant A2780cisR cells; assay type: cell-based, Human; conditions: 72-h exposure
Description: (§1) Human ovarian carcinoma (A2780) and cDDP-resistant A2780 (A2780cisR) cells were cultured in RPMI 1640 with 10% FBS and 100 units penicillin/streptomycin. HeLa cells, adenocarcinomic human alveolar basal epithelial cells (A549) and cDDP-resistant A549 (A549cisR) cells were cultured in DMEM containing 10% FBS and 100 units penicillin/streptomycin. All cells were incubated at 37° C. under 5% CO2. The cDDP-resistant cells, A549cisR and A2780cisR were generated from their parental A549 or A2780 cells. Briefly, A549 or A2780 cells were cultured in complete medium containing 0.5 μg/mL cisplatin at the beginning for the first screening, and the remaining cells were cultured in complete medium containing 1.0 μg/mL cisplatin for at least 4 weeks until the resistance was obtained. An MTT assay was used to evaluate the cytotoxicity of cDDP and the subject heterodinuclear Pt—Ru compounds Ruthplatin-1, 2, 3 and 4 against A2780, A2780cisR, A549, A549cisR and HeLa. The results of this assay are depicted in Table 1 of FIG. 9. […] The results of this assay are depicted in Table 2 of FIG. 10. […] After incubating for 72 h, the original medium was removed and 0.2 mL fresh medium containing 1 mg/mL MTT was added to each well. After staining for 4 h, the medium was replaced by DMSO. The absorbance was tested at 570 and 630 nm. A control was set as medium without compound. […]

A549 cells = assay: MTT cytotoxicity assay, A549 cells; assay type: cell-based, human; conditions: 72-h exposure
Description: as §1

A549cisR cells = assay: MTT cytotoxicity assay, cDDP-resistant A549cisR cells; assay type: cell-based, human; conditions: 72-h exposure
Description: as §1

[1] = test system: A2780, A2780cisR, A549, A549cisR and HeLa; assay: MTT cytotoxicity assay, all cell lines tested; assay type: cell-based; conditions: each of the cell lines, 72-h exposure
Description: Human ovarian carcinoma (A2780) and cDDP-resistant A2780 (A2780cisR) cells were cultured in RPMI 1640 with 10% FBS and 100 units penicillin/streptomycin. HeLa cells, adenocarcinomic human alveolar basal epithelial cells (A549) and cDDP-resistant A549 (A549cisR) cells were cultured in DMEM containing 10% FBS and 100 units penicillin/streptomycin. All cells were incubated at 37° C. under 5% CO2. The cDDP-resistant cells, A549cisR and A2780cisR were generated from their parental A549 or A2780 cells. Briefly, A549 or A2780 cells were cultured in complete medium containing 0.5 μg/mL cisplatin at the beginning for the first screening, and the remaining cells were cultured in complete medium containing 1.0 μg/mL cisplatin for at least 4 weeks until the resistance was obtained.
An MTT assay was used to evaluate the cytotoxicity of cDDP and the subject heterodinuclear Pt—Ru compounds Ruthplatin-1, 2, 3 and 4 against A2780, A2780cisR, A549, A549cisR and HeLa. The results of this assay are depicted in Table 1 of FIG. 9. […]
For each of these assays, cells were seeded in 96-well plates at a density of 1,500 cells per well (for A2780, A549 and HeLa) or 2,500 cells per well (for A2780cisR and A549cisR) and were incubated till their confluency reached about 30%. […] The absorbance was tested at 570 and 630 nm. […]

HeLa cells = assay: MTT cytotoxicity assay, HeLa cells; assay type: cell-based; conditions: 72-h exposure
Description: as §1

| SMILES | RF (resistant factor) = IC50 in A2780cisR/IC50 in A2780 (A2780cisR cells) | cytotoxicity in A549 cells (compared with cisplatin) (A549 cells) | RF (resistant factor) = IC50 in A549cisR/IC50 in A549, compared with cisplatin (A549cisR cells; A549/A549cisR cells) | cytotoxicity in A549cisR cells (compared with cisplatin) (A549cisR cells; A549cisR cells) | IC50 values compared with cDDP [1] | activity against the proliferation of HeLa cells (HeLa cells) |
| --- | --- | --- | --- | --- | --- | --- |
| Cc1ccc(C(C)C)cc1.[NH3+][Pt-2]([NH3+])([OH])([Cl])([Cl])[O]C(=O)CCc1ccc[n+]([Ru-]2[O]C(=O)C(=O)[O]2)c1 [Ruthplatin-4] | 2.1 | significantly increased cytotoxicity | decreases | significantly increased cytotoxicity | significantly lower than that of cDDP | very active |
| [NH2][Pt]([NH2])([Cl])[Cl] [cDDP, Cisplatin, reference compound] | 17.4 |  |  |  |  |  |
